From patent US8063104B2, “Guanidine derivatives as inhibitors of DDAH” (UCL Business PLC, priority 2004, dated 2011)
Where “and” joins values, the source holds several entries; their conditions need not be identical. Equal entries are not always repeated. Where two headings read alike, the source gives them in different places.

How the values were obtained:
[1] = In vivo study: serum dimethylarginine levels after i.v. bolus; design: species or system Male Wistar rats; conditions: 4 hours after 60 mg/kg i.v. bolus, control 1.81 ± 0.23
Experimental: Male Wistar rats (250-300 g; Charles River, Margate, Kent, UK) were anaesthetised using Isoflurane. The jugular vein was cannulated. Animals were injected intravenously with a bolus dose of inhibitor (60 mg/kg) or saline. Anaesthesia was maintained for 4 hours at the end of which blood was obtained via cardiac puncture for the determination of serum dimethylarginine levels. [All animals received care in compliance with The British Home Office Regulations and Principles of Laboratory Animal Care. (Project licenses PPL/5344, PPL/4824, PPL 70/5580)]
SDMA is not a substrate for DDAH and the levels of SDMA would be expected to be the same of the treated and the control animals, and this was the case. Since there is a great deal of variability of the “normal” ADMA and SDMA level, it is useful to measure the ratio of ADMA and SDMA in each animal to provide a reliable indicator of the relative changes of these to substances.

rat aortic rings [2] = experiment: NOx production from endotoxin-treated rat aortic rings in static culture; assay type: cell-based; conditions: endotoxin 10 μg/ml, compound 500 μM
Experimental: FIG. 1 is a graph showing the nitrate and nitrite (NOx) production from isolated rat aortic rings in static culture in the presence of either media alone (untreated); media plus 10 μg/ml LPS (LPS) and media plus 10 μg/ml LPS and 500 μM SR257 or SR291. n≧6; *p<0.0001 One Way ANOVA plus Bonferroni post hoc correction;
Effects of two compounds SR 291 [N^G-(2-methoxyethyl)-L-arginine methyl ester] and SR 257 [N^G-(2-methoxyethyl)-L-arginine]) have been tested in a series of models of endotoxin-induced vascular dysfunction. Treatment of rat aortic vascular rings in static culture with endotoxin (10 μg/ml) led to an increase in generation of nitric oxide (as measured by nitrite and nitrate). This increase in NO was prevented by treatment with 500 μM SR257 or SR291.

DDAH = biological target: T1, DDAH (Rattus norvegicus, UniProt O08557); experiment: DDAH activity assay (rat kidney lysate, [14C]L-NMMA to [14C]citrulline); assay type: biochemical; conditions: 1 mM compound, [14C]L-NMMA 1 μmol/L, 1 h 37° C.
T1 construct: Rat kidney was homogenized in PBS; from tissue; host or cells: rat kidney homogenate, high-speed supernatant
Experimental: Rat kidney was homogenized in PBS containing PMSF 1 mM, leupeptin 5 μg/ml, pepstatin 5 μg/ml, chymostatin 5 μg/ml, and the lysate was centrifuged (4000 rpm. 20 min then supernatant further centrifuged for 40000 rpm, 30 min, 4° C.). The supernatants were analyzed for DDAH activity; [^14[…]) was added to the cell lysates (final volume 100 μl) and incubated for 1 h at 37° C. Dowex resin (0.5 ml) at neutral pH was immediately added to samples to terminate the reaction and bind unmetabolized L-NMMA. [^14C]Citrulline formation was determined by scintillation counting (Hewlett Packard).

rat aortic rings [3] = experiment: Endotoxin-induced hyporeactivity to vasoconstrictors in rat aortic rings; assay type: cell-based; conditions: endotoxin 0.3 μg/ml, compound 100 μM and 200 μM
Experimental: Incubation of rat aortic rings with endotoxin (0.3 μg/ml) led to the development of hyporeactivity to vasoconstrictors.

RAW cells = experiment: Cell viability assay (MTT) in RAW cells
Experimental: RAW cells were treated with DDAH inhibitor compound (0.5 mM) in complete media for 24 h; cells were subsequently assessed for viability by MTT assay. Cell culture media was removed from cells and replaced with 200 μl complete media containing 3-[4,5-Dimethylthiazol-2-yl]-2,5-diphenyltetrazolium bromide (MTT 0.2 mg/ml) for 30 min at 37° C. MTT containing media was removed and 100 ul DMSO was added to solubilize cells; after shaking, plates were read at OD550 nm.

iNOS = biological target: T2, iNOS (Mus musculus, UniProt P29477); experiment: iNOS activity Greiss assay in stimulated RAW cells; assay type: cell-based; conditions: Griess NOx, RAW cells stimulated 24 h with LPS/IFN and TNF, compound 0.5 mM, 550 nm; control 0.367 ± 0.021
T2 construct: endogenous in cells; host or cells: RAW cells stimulated with LPS/IFN and TNF
Experimental: RAW cells were stimulated for 24 h with LPS/IFN and TNF, in the presence of the DDAH inhibitor compounds (0.5 mM). Levels of NOx secreted into the media by the cells were determined by Griess assay: Greiss reagent [1:1 sulfanilamide ([…]) in ortho-phosphoric acid (50%) and N-(1-napthyl)ethylenediamine dihydrochloride (1%)] was added as 100 μl volume to 100 μl cell culture media and the plate was read at 550 nm and analysed in relation to sodium nitrite and nitrate standards.

eNOS = eNOS assay ([14C]arginine conversion); assay type: biochemical; conditions: eNOS activity
Experimental: Compounds to be tested were added to NOS assay buffer (HEPES 50 mM pH 7.2, FAD 5 μM, FMN 5 μM, BH4 10 μM, NADPH 1 mM, DTT 0.5 mM, CaCl2 1 mM, MgCl2 1 mM, calmodulin 50 nM, [^14C] arginine 100 μM) in a final volume of 100 μl and the reaction was initiated by addition of eNOS (eNOS 3.3. U/reaction, Alexis Biochemicals). Reactions were incubated for 1 h at 37° C. and the reaction was terminated by the addition of Dowex pH 5.5 (0.85 ml) to each tube. Tubes were vortexed and microfuged <12000 g, 5 min. 100 μl of the Dowex supernatant was added to 5 ml scintillation cocktail and was counted in a scintillation counter (Hewlett Packard). The compounds were tested at 1 mM and 0.1 mM concentrations. Activity is expressed as % of control where control contained no inhibitor, n=4. The DDAH inhibitors of the present invention tested had no significant effect on eNOS activity.

[4] = system: zymosan-induced peritonitis; experiment: Zymosan-induced peritonitis, TO mice; assay type: in vivo; conditions: for cells 10^6/ml (individual animals 1-6): 60 mg/kg iv −30 min, +2 hrs, taken off at 4 hrs, listed as SR291, 60 mg/kg
Experimental: (§1) The effects of a DDAH inhibitor on zymosan-induced peritonitis were tested in two different strains of mice. C57/Blk6 or TO mice, male 8-10 weeks were placed in a heat box for 10 mins at 38° C., and treated with 60 mg/kg of SR291 [NA-(2-methoxyethyl)-L-arginine methyl ester] i.v. 30 mins later they were given 1 mg of zymosan i.p. A second dose of SR291 (60 mg/kg) was administered 2 h later and after 4 h mice were anesthetised with isofluorane and blood withdrawn by cardiac puncture. Mice were sacrificed and had 2 mls of ice cold PBS injected into their peritoneal cavity, the cavity was then gently massaged and cut open, the peritoneal washout was harvested and put on ice. Blood was spun down at 400 g, 10 mins at 4° C. The cells were spun at 4000 rpm for 5 mins at 4° C. Plasma was removed from the blood and frozen at −80° C. The exudates from the washout were removed and frozen at −80° C., the cell pellet was resuspended in 1 ml ice cold PBS and were counted on a haemocytometer. The cells were spun as before, the supernatant discarded and the cells frozen at −80° C. Polymorphonuclear (PMN) cell infiltrate into the peritoneal cavity was used to measure inflammation. […] Taken off at 4 hrs. […] Taken off at 4 hrs.

[5] = system: zymosan-induced peritonitis; experiment: Zymosan-induced peritonitis, C57/Blk6 mice; assay type: in vivo
Experimental: as §1

[6] = Endotoxin-induced fall in systemic blood pressure in anaesthetized rat; assay type: in vivo; conditions: endotoxin 40 mg/kg, infusion 30 mg/kg/hr
Experimental: Effects of intervention after 2-3 hours (when blood pressure had fallen to 80% of baseline pre LPS blood pressure) with 30 mg/kg/hr infusion of SR291; Injection of endotoxin (40 mg/kg) into rats caused a progressive fall in systemic BP. The decline was halted by infusion of 30 mg/kg/hr SR291.

T1 sequence (O08557 2-285 limits assumed): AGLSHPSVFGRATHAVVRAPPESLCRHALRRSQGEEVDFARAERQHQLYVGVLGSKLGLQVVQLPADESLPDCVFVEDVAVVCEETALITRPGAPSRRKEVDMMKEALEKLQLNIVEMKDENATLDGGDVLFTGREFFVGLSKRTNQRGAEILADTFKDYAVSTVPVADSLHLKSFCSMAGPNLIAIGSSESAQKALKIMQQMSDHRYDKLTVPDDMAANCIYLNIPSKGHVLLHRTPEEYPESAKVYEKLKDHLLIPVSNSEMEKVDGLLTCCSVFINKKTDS

SMILES | ADMA:SDMA ± sd [1] | endotoxin-induced increase in NO (nitrite and nitrate) (rat aortic rings [2]) | inhibition at 1000 µM (DDAH) [%] | endotoxin-induced hyporeactivity to vasoconstrictors (rat aortic rings [3]) | OD units drug ± sd (RAW cells; MTT, RAW cells, compound 0.5 mM, 24 h, OD550 nm, control 2.54 ± 0.26) [OD units] | OD units drug ± sd (iNOS) [OD units] | % of control ± sd (eNOS; 0.1 mM compound) | % of control ± sd (eNOS; 1 mM compound) | OD units drug ± sd (RAW cells) [OD units] | cells 10^6/ml (individual animals 1-6) ([4]; TO mice male 8-10 weeks, first study) | cells 10^6/ml (individual animals 1-6) ([4]; TO mice, second study) | cells 10^6/ml, mean ([4]; cumulative of Table 9 dataset, saline 4.783333) | cells 10^6/ml, mean ([4]; cumulative of Table 11 dataset, saline 6.125) | cells 10^6/ml, mean ([4]; cumulative of the two datasets of Tables 9 and 11, saline 5.454167) | cells million/ml (peritoneal washout, individual animals 1-5) ([5]; C57 male 8-10 weeks, 60 mg/kg iv −30 min, taken off at 4 hrs, listed as SR291, 60 mg/kg) | cells 10^6/ml, mean ([5]; combination of two datasets for the C57 mice, saline 6.7455) | cells million/ml, mean ([5]; cumulative of Table 6 dataset, saline 9.1) [million/ml] | PMN infiltrate into the peritoneal cavity ([5]; three separate experiments, 8-12 mice each, C57/Blk6 or TO mice, 60 mg/kg i.v.) | progressive fall in systemic BP [6]
COCCN=C(N)NCCCC(N)C(=O)O [Example 21, N^G-(2-methoxyethyl)-L-arginine] | 3.50 ± 0.48 | prevented | 100 | reversed dose dependently | 2.15 ± 0.13 | 0.326 ± 0.014 | 96.84 ± 30.49 [2] % of control | 84.81 ± 22.74 [4] % of control | – | – | – | – | – | – | – | – | – | – | –
COCCN=C(N)NCC[C@H](N)C(=O)OCc1ccccc1 [Example 26, (S)-2-Amino-4-(N′-(2-methoxyethyl)guanidino)butanoic acid benzyl ester] | – | – | 96 | – | – | 0.327 ± 0.026 | 101.2 ± 38.07 [2] % of control | 82.88 ± 10.08 [4] % of control | 2.40 ± 0.17 | – | – | – | – | – | – | – | – | – | –
COCCN=C(N)NCCCC(N)C(=O)OC [Example 28, N^G-(2-Methoxyethyl)-L-arginine methyl ester] | 2.73 ± 0.44 | prevented | 83 | reversed dose dependently | – | 0.325 ± 0.009 | 120.8 ± 17.80 [2] % of control | 112.5 ± 27.47 [4] % of control | 2.41 ± 0.10 | 3.05 10^6/ml and 3.35 10^6/ml and 3.2 10^6/ml and 1.4 10^6/ml and 3.9 10^6/ml and 4.3 10^6/ml | 4.3 10^6/ml (2×) and 4.6 10^6/ml and 4.85 10^6/ml and 5.2 10^6/ml and 3.9 10^6/ml | 3.2 10^6/ml | 4.525 10^6/ml | 3.8625 10^6/ml | 3 million/ml and 4 million/ml and 4.5 million/ml and 6.5 million/ml and 9 million/ml | 4.2 10^6/ml | 5.4 | significantly reduced | halted
